Laboratory results published in patent US5785948A, “Metal chelate forming peptides and use thereof represented by three amino acid sequences” (Nihon Medi-Physics Co., Ltd., priority 1994, dated 1998).
Where no end group is shown, it is not given here.

Assays:
Tumor cells HEp2 = test: Imaging of tumor in HEp2 tumor-bearing nude mouse (gamma camera, organ radioactivity); type: in vivo, BALB/C nude mouse; conditions: twenty minutes after injection
Experimental: Tumor cells HEp2 (5×10^6 cells, Human Epidermoid Carcinoma; ATCC No. CCL 23) were suspended in 1.0 ml of medium (Minimum essential medium (Eagle's) with Earle's BSS, 90% fetal bovine serum, 10%), and 100 μl of the suspension was subcutaneously injected to BALB/C nude mouse (6 weeks age) at the body side. […] Five and 20 minutes after the injection, the animal was imaged with a gamma camera.
Immediately after the imaging, the animal was sacrificed and examined for the distribution of the radioactivity in each organ using NaI single channel analyzer to determine a ratio of the radioactivity in tumor site to the radioactivity in muscle site (T/B ratio).

inflammation site = conditions: S. aureus inflammation rat
Experimental: Staphylococcus aureus 10^8 cells were suspended in 1 ml of physiological saline, and 100 μl of the suspension was intramuscularly administered to SD rats weighing about 220 g at the right calf. […] Thirty and 120 minutes after the peptide was injected, the animal was imaged with a gamma camera. Regions of interest were selected from the obtained image to determine a ratio T/B of the radioactivity in inflammation site (T) to the radioactivity in normal site (B).

| Substance | T/B ratio (radioactivity in tumor site to radioactivity in muscle site) (Tumor cells HEp2; i.v. tail vein, n=3) | Imaging of tumor site (gamma camera) (Tumor cells HEp2) | T/B ratio (radioactivity in inflammation site to radioactivity in normal site) (inflammation site; i.v. tail vein, regions of interest of image, n=6) | Imaging of inflammation site (gamma camera) (inflammation site; imaged 30 and 120 minutes after injection) |
| --- | --- | --- | --- | --- |
| Tc-99m-KYCAREPPTRTNAYWGQG (also: Tc-99m label) [Tc-99m-labeled peptide containing KYC at the N-terminus, for tumor imaging] | 4.50±0.71 | clearly imaged |  |  |
| Tc-99m-KYCGGKTKPREQQYNSTYRVV-NH2 |  |  | 3.26±0.18 | clearly imaged |
